Target: T1, Mitra Avidin-Agarose (Gallus gallus, UniProt P02701)
T1 construct: Mitra (Mitra Medical Technology AB)
Test: Adsorption of biotin-trimer to avidin-agarose column (conditioning, ELISA of recirculated fluid)
Type: binding
Parameters: biotin-trimer bound if one biotin-trimer is bound per available binding site: unit not given here
Protocol: Two mL of Mitra Avidin-Agarose was packed into a column housing and was washed with >10 mL of PBS at a flow rate of 1 mL/min (1.6 cm/min). Five mL of a 1 mg/mL solution of biotin-trimer in PBS was recirculated through the avidin-column at 1 mL/min for 20 minutes. At end of the recirculation, a sample (0.5 mL) was drawn from the recirculated solution and analysed by an ELISA technique developed by Mitra Medical Technology AB. The biotin-avidin-agarose-column was washed with phosphate buffer at 1 mL/min for 20 minutes. By determining the concentration of biotin-trimer in the recirculated fluid, the amount of adsorbed biotin-trimer was estimated to about 1.9 mg i.e. […] of gel at the end of recirculation.
Biotin-trimer was adsorbed to 2 mL of Mitra Avidin-Agarose. […] If one biotin-trimer is bound per available binding site this would correspond to […] biotin-trimer/mL. As about 0.95 mg biotin-trimer was bound per mL avidin-agarose it can be assumed that the adsorbent was saturated with biotin-trimer.

T1 sequence (P02701 25-152): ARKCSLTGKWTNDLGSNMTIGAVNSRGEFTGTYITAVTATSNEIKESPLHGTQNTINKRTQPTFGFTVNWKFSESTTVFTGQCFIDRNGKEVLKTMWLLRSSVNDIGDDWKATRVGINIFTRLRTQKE

## O=C(CCCCC1OCC2NC(=O)NC21)NCCOCCOCCNC(=O)c1cc(C(=O)NCCOCCOCCNC(=O)CCCCC2OCC3NC(=O)NC32)cc(C(=O)NCCOCCOCCNC(=O)CCCCC2OCC3NC(=O)NC32)c1 (stereo not shown) [biotin-trimer]
2 mL Mitra Avidin-Agarose
  biotin-trimer bound per mL avidin-agarose: about 0.95 mg per mL avidin-agarose
2 mL Mitra Avidin-Agarose, 5 mL of 1 mg/mL biotin-trimer in PBS recirculated at 1 mL/min for 20 minutes
  amount of adsorbed biotin-trimer at end of recirculation: about 1.9 mg
2 mL Mitra Avidin-Agarose, end of 20 min recirculation
  amount of adsorbed biotin-trimer per mL of gel: ~0.95 mg/mL
theoretical, from static biotin binding capacity
  biotin-trimer bound if one biotin-trimer is bound per available binding site: 514

Reference: patent US20020159994A1, “Biotin derivatives” (priority 2000, published 2002)
